The values that follow come from patent US10730882B2, “2-aminoquinazoline derivatives as P70S6 kinase inhibitors” (SENTINEL ONCOLOGY LIMITED, priority 2015, dated 2020).

The structures appear in SMILES notation. Read-outs that look alike come from different tables or passages of the source.

Data set [1] can be described thus: in vivo cassette mouse model: brain and plasma concentrations following oral dosing. The note with it: male CD-1 mice, 2.5 mg/kg per compound; for Kp at 3 h: brain and plasma, read-out: (b) Brain:Plasma ratio at 3 hours. How it is done: (b) Evaluation of Brain and Plasma Concentrations in an In Vivo Cassette Mouse Model
The compounds of this invention were evaluated in an in vivo cassette mouse model to determine brain and plasma concentrations following oral dosing. This is an industry-standard and recognised means to assess brain penetration of small molecules (for recent literature article, refer to: in vitro permeability analysis, pharmacokinetic and brain distribution study in mice of imperatorin, isoimperatorin and cnidilin in Radix Angelicae Dahuricae, Fitoterapia, Volume 85, March 2013, Pages 144-153). It is also recognised that higher brain concentrations (and higher ratios of brain:plasma concentration) lead to greater exposure in the brain—this is clearly advantageous if the brain is the site of action.
For a single cassette study, male CD-1 mice were used (n=3 per timepoint, three timepoints: 1.0 hr, 3.0 hr and 8.0 hr).
5 compounds were dosed PO per cassette (dose level 2.5 mg/kg per compound, dose conc. 0.25 mg/ml, dose volume 10.0 ml/kg).
Formulation used to solubilize compounds: 10% DMSO/90% hydroxypropyl-β-cyclodextrin (20% w/v aqueous)
Sampling was terminal and plasma and brain matrices were generated. To prepare plasma samples, protein was precipitated using acetonitrile. To prepare brain samples, homogenisation and protein precipitation was performed with acetonitrile. Samples were analysed using HPLC-TOF MS using electrospray ionisation.
The brain and plasma concentrations and brain-plasma ratios observed for the compounds tested are set out in the table below.

In the next data set the target is p70S6K (h) (Homo sapiens (Human), UniProt P23443). In words: p70S6K (h) kinase assay (radiometric, [γ-33P-ATP]). The class given is biochemical. The following applies: read-out: (a) p70S6K1 IC50. The procedure:
(a) Determination of p70S6 Inhibitory Activity
The ability of compounds of the invention to inhibit P70S6 kinase may be determined using the protocol below.
20 mM MOPS, 1 mM EDTA, 0.01% Brij-35, 5% Glycerol, 0.1% b-mercaptoethanol, 1 mg/mL BSA
In a final reaction volume of 25 μL, p70S6K (h) (5-10 mU) is incubated with 8 mM MOPS pH 7.0, 0.2 mM EDTA, 100 μM KKRNRTLTV, 10 mM Mg acetate and [γ-33P-ATP](specific activity approx. 500 cpm/pmol, concentration as required). The reaction is initiated by the addition of the MgATP mix. After incubation for 40 minutes at room temperature, the reaction is stopped by the addition of 5 μL of a 3% phosphoric acid solution. 10 μL of the reaction mixture is then spotted onto a P30 filtermat and washed three times for 5 minutes in 75 mM phosphoric acid and once in methanol prior to drying and scintillation counting.

The subject of another data set is FXS mice (Fmr1 KO). The data set can be described thus: audiogenic seizure assay (AGS), in vivo model of Fragile X Syndrome. From the text: (d) Evaluation of Compounds in the Audiogenic Seizure Assay, an In Vivo Model of Fragile X Syndrome (FXS)
Seizures occur in conjunction with FXS and autism in up to one-quarter of children with these disorders (Berry-Kravis E (2002) Epilepsy in fragile X syndrome. Dev. Med. Child Neurol. 44(11):724-728). […] The audiogenic seizure assay (AGS) is a well-documented mouse model of FXS (Audiogenic seizures susceptibility in transgenic mice with fragile X syndrome, Epilepsia. 2000 January; 41(1):19-23). In such a model it is possible to dose compounds to observe effects on susceptibility of the mice to audiogenic seizures. The following AGS experiment was set up to test the efficacy of compounds of this application:
The following experiment design was used:
Strain of FXS mouse used: FVB background
Vehicle used: 10% DMSO/90% hydroxypropyl-β-cyclodextrin (20% w/v aqueous)
Animals were assessed in AGS following 7 consecutive days of dosing.
The experimental chamber consisted of a plastic cage of dimensions 25×25×47 cm in which a doorbell (Electrical bell Heath Zenith, model 172C-A) had been mounted on the cage roof.
Mice were taken from their housing room one by one and transferred into the experimental chamber and allowed to explore the novel environment (basal noise […]) for a period of 30 seconds after which point the bell was rung (124 dB) for a period of 60 seconds.
The resulting motor responses were classified using a scale modified from the one originally described by Jobe et al. (1973): no response (NR: pause or continuous exploration), wild running (WR), seizure (S) or respiratory arrest and/or death (RA). The motor response rate is defined as the percentage of animals per group responding to the stimulus.

A further data set relates to MDA-MB-231 cells. In words: in vivo model of triple negative breast cancer (TNBC): tumour initiation and metastasis. More on the design: species or system female athymic nude mice. From the text:
(c) Evaluation of Efficacy of Compounds in Counter-Acting Tumour Initiation and Metastasis in an In Vivo Model of Triple Negative Breast Cancer (TNBC)
It is known that S6K1 has a crucial role in the recurrence of TNBC cancers following surgery, mainly through the activity of S6K1 in promoting survival of cancer cells in the host via phosphorylation and activation of the anti-apoptotic protein Bcl2 and of Gli1 (Belletti 2014). In addition, S6K1 promotes metastasis of TNBC cells (Akar 2010, Hung 2014).
In order to test the efficacy of an inhibitor of S6K1 in an in vivo model of tumour initiation and metastasis, the following experiment was established:
A total of 22 female athymic nude mice (Hsd:Athymic Nude-Foxn1^nu) were purchased from Harlan (UK) and acclimatised for 7 days prior to study commencement. Animals were housed in IVC cages (5 per cage) with individual mice identified by ear punch. All animals were allowed free access to a standard certified commercial diet and sanitised water during the study. The holding room was maintained under standard conditions: 20-24° C., 40-70% humidity and a 12 h light/dark cycle.
On day −1, animals were randomly assigned to treatment groups as indicated in the table below, and drug treatment commenced. On day 0, MDA-MB-231 cells (1×10^6 in matrigel) were implanted into the second mammary fat pad.
The dosing route was PO and the formulation was as follows: 10% DMSO/90% hydroxypropyl-β-cyclodextrin (20% w/v aqueous).
During the experiment, the following outcome measures were assessed:
(1) Time to palpation of tumour (latency) (2) tumour volume (3) tumour and organ weights as a measure of metastasis (4) visual appearance of metastatic nodules in the lungs.
At necroscopy the lungs of the vehicle and treated animals were examined for presence of metastatic nodules: […]

Where [2] appears, read: brain, read-out: (b) Brain conc. at 3 hours.
Setting [3] is: plasma, read-out: (b) Plasma conc. at 3 hours.
[4] abbreviates: FXS (Fmr1 KO) mice, n=10, 50 mg/kg QD x 7 PO, mono-HCl salt, bell 124 dB for 60 seconds.
Where [5] appears, read: FXS mice, FVB background, following 7 consecutive days of dosing.
The mark [6] stands for this setting: mono-HCl salt, 100 mg/kg p.o. BID, 21 days, compared to control.

p70S6K (h), sequence (P23443 whole entry): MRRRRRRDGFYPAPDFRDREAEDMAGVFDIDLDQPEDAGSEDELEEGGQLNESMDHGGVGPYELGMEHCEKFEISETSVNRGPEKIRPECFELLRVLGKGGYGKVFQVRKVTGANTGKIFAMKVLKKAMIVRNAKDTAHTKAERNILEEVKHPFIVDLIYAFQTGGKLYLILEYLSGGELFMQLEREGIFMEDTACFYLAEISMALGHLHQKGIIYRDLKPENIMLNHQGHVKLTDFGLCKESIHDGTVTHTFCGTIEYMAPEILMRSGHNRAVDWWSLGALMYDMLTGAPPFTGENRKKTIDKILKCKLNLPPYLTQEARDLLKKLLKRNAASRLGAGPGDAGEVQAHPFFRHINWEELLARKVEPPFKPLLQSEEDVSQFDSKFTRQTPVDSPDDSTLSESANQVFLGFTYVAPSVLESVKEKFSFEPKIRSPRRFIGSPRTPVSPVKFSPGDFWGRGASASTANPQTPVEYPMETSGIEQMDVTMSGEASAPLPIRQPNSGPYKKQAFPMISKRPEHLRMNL

With `C[C@@H](Nc1ncc2cc(-c3ncnc4[nH]ncc34)ccc2n1)c1ccc(F)c(F)c1` [Example 19, [(R)-1-(3,4-Difluoro-phenyl)-ethyl]-[6-(1H-pyrazolo[3,4-d]pyrimidin-4-yl)-quinazolin-2-yl]-amine], the Kp at 3 h in data set [1] is 4. The concentration at 3 h worked out at 2420 nM in data set [1] (setting [2]) and 600 nM in data set [1] (setting [3]). In addition, on p70S6K (h), the IC50 amounted to 10 nM.

On to `C[C@@H](Nc1ncc2cc(-c3ncnc4[nH]ncc34)ccc2n1)c1ccccc1F` [Example 28, [(R)-1-(2-Fluoro-phenyl)-ethyl]-[6-(1H-pyrazolo[3,4-d]pyrimidin-4-yl)-quinazolin-2-yl]-amine], for which the Kp at 3 h in data set [1] was determined as 2.6. In addition, the concentration at 3 h in data set [1] (setting [2]) amounted to 1070 nM; in data set [1] (setting [3]) it was 420 nM. Besides, at p70S6K (h), the IC50 was 15 nM.

Take `C[C@@H](Nc1ncc2cc(-c3ncnc4[nH]ncc34)ccc2n1)c1ccccc1` [Example 1, ((R)-1-Phenyl-ethyl)-[6-(1H-pyrazolo[3,4-d]pyrimidin-4-yl)-quinazolin-2-yl]-amine]: in the data set with FXS mice (Fmr1 KO) (setting [4]), the “NR (no response: pause or continuous exploration), number of animals” value is 9; the “RA (respiratory arrest and/or death), number of animals” value is listed as 0; the “S (seizure), number of animals” value was 0; the “WR (wild running), number of animals” value came to 1. Also, in the data set with FXS mice (Fmr1 KO) (setting [5]), the “incidence of audiogenic seizures” value is “reduced” and the “severity of response (audiogenic seizure)” value is reported as “reduced”. In the data set on MDA-MB-231 cells (100 mg/kg BID x 21, lungs examined at necroscopy, mono-HCl salt), the “Mean no. of lung nodules per animal” value turned out to be 0. Further, the “metastatic burden in the lungs” value with MDA-MB-231 cells (at necroscopy, spontaneous metastasis from a TNBC primary tumour) is “effective in reducing the metastatic burden in the lungs”. For the same compound, the tumour weight result with MDA-MB-231 cells (day 21, mono-HCl salt, 100 mg/kg p.o. BID, compared to vehicle) is listed as “weighed significantly less”. The weight of liver entry in the data set on MDA-MB-231 cells (day 21, mono-HCl salt, 100 mg/kg p.o. BID, compared to vehicle treated group) is “reduction in weight of liver”. Besides, in the data set on MDA-MB-231 cells (setting [6]), the “rate of incidence of tumour” value is on record as “decreases the rate of incidence”, the “time until appearance (palpation) of tumour” value is reported as “delays time until appearance (palpation) of tumour” and the tumour volume result is recorded as “significant reduction in volume of tumours”. The Kp at 3 h in data set [1] is 2.7. Also, the concentration at 3 h in data set [1] (setting [2]) was 1600 nM. In addition, the concentration at 3 h in data set [1] (setting [3]) was determined as 580 nM. Further, on p70S6K (h), the IC50 was found to be 13 nM.

As to `C[C@@H](Nc1ncc2cc(-c3ncnc4[nH]ncc34)ccc2n1)c1cccc(F)c1` [Example 3, ((R)-1-(3-Fluoro-phenyl)-ethyl)-[6-(1H-pyrazolo[3,4-d]pyrimidin-4-yl)-quinazolin-2-yl]-amine], in data set [1], the Kp at 3 h was 3.7. Moreover, the figures for the concentration at 3 h in data set [1] (setting [2]) and in data set [1] (setting [3]) were 1680 nM and 460 nM, respectively. Further, the IC50 at p70S6K (h) amounted to 21 nM.

What is called IC50 is the concentration at which inhibition is half-maximal.
